Experimental data published in US20180186796A1, “COMPOUNDS AND USES THEREOF” (LEAD DISCOVERY SIENA S.R.L., priority 2014, published 2018).
Converted amounts (≈) assume the structure as drawn. Read-outs that look alike come from different tables or passages of the source.

What was measured:
[1] = tested on: U251 cells; assay: Proliferation assay on U251 cells; format: cell-based, human; settings: 72 h, viable cells vs untreated
Procedure: (§1) U87 and U251 cells were purchased from European Collection of Cell Cultures (ECACC, Salisbury, UK) and were cultured in DMEM medium supplemented with 10% Foetal Bovine Serum. In order to determine antiproliferative effect of drugs tumor cells were seeded at 2×10^5 cells/ml density and treated with compounds at indicated concentrations. The cultures were maintained at 37° C. in 5% v/v CO2 for 72 h. Cell number and viability were evaluated by Trypan blue exclusion test. Viable cells were expressed as percentage respect to cells treated with vehicle (=100%). Mean and SD values of at least three different experiments are shown.
(§2) U87 and U251 cells were purchased from European Collection of Cell Cultures (ECACC, Salisbury, UK) and were cultured in DMEM medium supplemented with 10% Foetal Bovine Serum. In order to determine antiproliferative effect of drugs tumor cells were seeded at 2×10^5 cells/ml density and treated with compounds at indicated concentrations. The cultures were maintained at 37° C. in 5% v/v CO2 for 72 h. Cell number and viability were evaluated by Trypan blue exclusion test. Viable cells were expressed as percentage respect to untreated cells (=100%/). Mean and SD values of at least three different experiments are shown.

[2] = tested on: SH-SY5Y cells; assay: Antiproliferative activity on neuroblastoma human cell line SH-SY5Y; format: cell-based; settings: 72 h, viable cells vs untreated
Procedure: (§3) In vitro experiments were carried out using the human neuroblastoma cell line SH-SY5Y. Cells were purchased from American Type Culture Collection (ATCC, Manassas, Va., USA) and were cultured in DMEM medium supplemented with 100/Foetal Bovine Serum. In order to determine antiproliferative effect of drugs SH-SY5Y cells were seeded at 2×10^5 cells/ml density and treated with compounds at increasing concentrations from 0.01 to 50 μM. The cultures were maintained at 37° C. in 5% v/v CO2 for 72 h. Cell number and vitality were evaluated using the automatic cell counter NucleoCounter® (Chemometec, Denmark). Results from the NucleoCounter represented either total or non-viable cell concentration, depending on the sample preparation indicated by manufacturer.
as §3, with “10% Foetal” for “100/Foetal”

[3] = tested on: U87 cells; assay: Proliferation assay on U87 cells; format: cell-based, human; settings: 72 h, viable cells vs untreated
Procedure: as §1, §2

[4] = tested on: human normal fibroblasts; assay: Toxicity in human normal fibroblasts; format: cell-based
[5] = tested on: Fyn mediated phosphorylation of residue Tyr18 in Tau protein; assay: Aβ42 induced Tyr18-Tau phosphorylation in differentiated SH-SY5Y cells; format: cell-based, human
Procedure: The neuroblastoma cell line SH-SY5Y was cultured in media obtained by mixing equal volume of MEM and HAM F12 supplemented with 15% fetal calf serum (FCS, Australian origin, Lonza), 100 U/ml penicillin, 100 μg/ml streptomycin and 2 mM L-glutamine (all from Euroclone) at 37° C. in humidified air with 5% CO2. The medium was changed every 48 hours. Cells were split at about 80% confluence and never cultured beyond passage 20. Cell differentiation was achieved by pre-treating for 5 days the SH-SY5Y cells with media containing 1% FCS and 10 μM retinoic acid (RA, Sigma Aldrich). Subsequently cells were treated for other 7 days in media with no serum and supplemented with 50 ng/ml of human recombinant brain derived neurotrophic factor (BDNF, Peprotech), 10 ng/ml human recombinant beta nerve growth factor (NGF, Peprotech), 10 ng/ml neuregulin 1 beta 2 protein (NRG, Abcam) and 9.35 μg/ml vitamin D3 (Sigma Aldrich). To confirm full neuronal differentiation, the expression of mature isoforms of Tau were checked. Differentiated cells were treated for 1.5, 3 and 6 hours with media containing 10 μM Aβ42 oligomer/protofibrils and N2 supplement (Life Technologies), in the presence or in the absence of Fyn inhibitors dissolved in DMSO. As control, cells were treated with media containing equivalent amounts of DMSO.
Briefly, Aβ42 peptides (Sigma) were dissolved in 1,1,1,3,3,3-hexafluoro-2-propanol and lyophilized to completely remove the solvent. Lyophilized Aβ42 peptides were reconstituted in DMSO to a working concentration of 10 mM, diluted 1:100 using HAM F12 (without phenol red and glutammine), vortexed for 15 sec and incubated 24 hours at 4° C. A042 oligomer/protofibrils were visualized by SDS-PAGE and silver staining.

[6] = tested on: K562 cells; assay: Antiproliferative activity on human cell line K562; format: cell-based
Procedure: In vitro experiments were carried out using the human Chronic Myelogeneous Leukemia cell line K562. Cells were purchased from American Type Culture Collection (ATCC, Manassas, Va., USA) and were cultured in RPMI medium supplemented with 10% Foetal Bovine Serum. […] Cell number and vitality were evaluated using the automatic cell counter NucleoCounteri (Chemometec, Denmark). Results from the NucleoCounter represented either total or non-viable cell concentration, depending on the sample preparation indicated by manufacturer.
In vitro experiments were carried out using the human Chronic Myelogeneous Leukemia cell line K562. Cells were purchased from American Type Culture Collection (ATCC, Manassas, Va., USA) and were cultured in RPMI medium supplemented with 10% Foetal Bovine Serum. […] Cell number and vitality were evaluated using the automatic cell counter NucleoCounter® (Chemometec, Denmark). Results from the NucleoCounter represented either total or non-viable cell concentration, depending on the sample preparation indicated by manufacturer.

[7] = Stability tests in phosphate buffer and methanol; format: physicochemical; settings: 20° C., 48 h incubation
[8] = Water solubility assay; settings: for solubility at 24 h / solubility thermodynamic at 24 h: water, 20 °C, thermodynamic from solid; for H2O Sol.: Table 8, 20° C., 24 h
Procedure: Each solid compound (1 mg) was added to 1 mL of water. […] The suspensions were filtered through a 0.45 μm nylon filter (Acrodisc), and the solubilized compound determined by LC-MS-MS assay. For each compound the determination was performed in triplicate. […] The flow rate was 0.2 mL min-^−1 and injection volume was 5 μL. The instrument operated in positive mode and parameters were: detector 1850 V, drying gas pressure 25.0 psi, desolvation temperature 300.0° C., nebulizing gas 40.0 psi, needle 5000 V and shield 600 V. Nitrogen was used as nebulizer gas and drying gas.
Solid compound (1 mg) was added to 1 mL of water. […] The suspensions were filtered through a 0.45-μm nylon filter (Acrodisc), and the solubilised compound determined by LC-UV-MS assay. The determination was performed in triplicate.
Chromatographic analysis was performed with the method above reported and quantification of compounds was made by comparison with apposite calibration curves realized with standard solutions in methanol.

[9] = tested on: U87 cells; assay: Orthotopic mouse model of GBM; format: in vivo, mice; settings: 50 mg/kg three times per week for 4 weeks
Procedure: Survival curves (days) of orthotopic mouse model of GBM.
Male CD1 nude mice (Charles River, Milan, Italy) were maintained under the guidelines established by University of L'Aquila, Medical School and Science and Technology School Board Regulations, complying with the Italian government regulations for the use of laboratory animals. Before any invasive manipulation, mice were anesthetized with a mixture of ketamine (25 mg/ml)/xylazine (5 mg/ml). Tumor grafts were obtained by injecting with a Hamilton syringe mounted on a stereotactic instrument, 2*10^3 U87 cells resuspended in 2 microL PBS (David Kopf Instruments, CA, USA). The cells were injected after the exposition of periosteal cranic site and the drimming of a 1 mm diameter hole localized at 4 mm from striatum and with a depth of 4 mm. The wound was treated with antibiotics and was surgically sutured.

[10] = PAMPA, intestinal (GI) permeability; settings: for PAMPA GI (MR %): Membrane Retention; for Papp at 5 h, 0.5 mM: PAMPA, pH 7.4
[11] = Enzymatic stability in human plasma; format: in vitro ADME; settings: for half-life at 100 μM: human, pooled human plasma diluted with phosphate buffer, pH 7.4
[12] = PAMPA, BBB permeability; settings: for PAMPA BBB (MR %): Membrane Retention; for Papp at 5 h, 0.5 mM: PAMPA, pH 7.4
Procedure: Donor solution (0.5 mM) was prepared by diluting 1 mM dimethylsulfoxide (DMSO) compound stock solution using phosphate buffer (pH 7.4, 0.025 M). […] Donor solution (150 μL) was added to each well of the filter plate. To each well of the acceptor plate were added 300 μL of solution (50% DMSO in phosphate buffer). All compounds were tested in three different plates on different days. The sandwich was incubated for 5 h at room temperature under gentle shaking. After the incubation time, the plates were separated, and samples were taken from both receiver and donor sides and analyzed using LC with UV detection at 280 nm.
Permeability (Papp) for PAMPA was calculated according to the following equation, obtained from Wohnsland and Faller^27 and Sugano et al.^28 equation with some modification in order to obtain permeability values in cm s^−1,
Drug concentration is estimated by using the peak area integration. Membrane retentions (%) were calculated according to the following equation:
where r is the ratio between drug concentration in the acceptor and equilibrium concentration, D, A, and Eq represented drug concentration in the donor, acceptor and equilibrium solution, respectively.
Donor solution of tested compounds (0.5 mM) was prepared by diluting 1 mM dimethylsulfoxide (DMSO) compound stock solution using phosphate buffer (pH 7.4, 25 mM). […] Donor solution (150 μL) was added to each well of the filter plate. To each well of the acceptor plate were added 300 μL of solution (50% DMSO in phosphate buffer). Compounds was tested in three different plates on different days. The sandwich was incubated for 5 h at room temperature under gentle shaking.
Permeability (Papp) for PAMPA was calculated according to the following equation, obtained from Wohnsland and Faller and Sugano et al.^27, 28.
Drug concentration is estimated by using the peak area integration. Membrane retention (%) was calculated according to the following equation:

[13] = In vivo pharmacokinetics / biodistribution; parameters: species or system mice; settings: 50 mg/Kg i.p.; for Quantity of Compound, BLOOD / Quantity of Compound, BRAIN: administered compound itself, BALB/C mice
Procedure: The animal protocols used were reviewed and approved by the Animal Care and Ethics Committee of the Universita{grave over ( )} degli Studi di Siena, Italy. Male BALB/C mice (weight 20-30 g) were obtained from Charles River (Milan, Italy). […] The blood, previously heparinized, was centrifuged at 4000 rpm for 20 minutes to separate the plasma fraction and then 500 μl were collected in a test tube. […] Samples were centrifuged at 4000 rpm for 20 minutes, the supernatant was recovered, dried under vacuum and analyzed by LC-UV-MS. Brain was homogenized using a glass/glass Potter-Elvehjem homogenizer in presence of Tris-HCl buffer (50 mM) and compounds were recovered using 7 mL of ACN then treated as previously described for blood samples.

[14] = Microsomal stability assay; settings: percentage of unmodified drug, Table 8
[15] = methanol, read-out: Stability MeOH t1/2
[16] = phosphate buffer, pH 7.4, read-out: Stability PBS pH 7.4 t1/2
[17] = 37° C., read-out: Stability Human Plasma t1/2 (converted)

| SMILES | IC50 ([1]; Homo sapiens, U-251) [µM] | IC50 ([2]; Homo sapiens, SH-SY5Y) [µM] | IC50 ([3]; Homo sapiens, U-87 MG) [µM] | half-life at 500 μM [7, 15] [h] | half-life at 500 μM [7, 16] [h] | solubility at 24 h [8] [µM] | solubility thermodynamic at 24 h [8] [µg/mL] | PAMPA GI (MR %) [10] | Papp at 5 h, 0.5 mM [10] [×10⁻⁶ cm/s] | half-life at 100 μM [11, 17] [h] | PAMPA BBB (MR %) [12] | Papp at 5 h, 0.5 mM [12] [×10⁻⁶ cm/s] | Metabolic Stab. % [14] [%] | H2O Sol. [8] [µg/mL] | also measured |
| --- | --- | --- | --- | --- | --- | --- | --- | --- | --- | --- | --- | --- | --- | --- | --- |
| CCCCN(C(=O)OCCN1CCN(C)CC1)c1nc(SCC)nc2c1cnn2CC(Cl)c1ccccc1 (centres unmarked) [proSi20, 2-(4-Methylpiperazin-1-yl)ethyl butyl(1-(2-chloro-2-phenylethyl)-6-(ethylthio)-1H-pyrazolo[3,4-d]pyrimidin-4-yl)carbamate] | 0.8 | 0.3 | 3.6 |  |  |  |  |  |  |  |  |  |  |  |  |
| Cc1ccc(-c2nn(CC(Cl)c3ccccc3)c3ncnc(N)c23)cc1 (centres unmarked) [Si309, 1-(2-Chloro-2-phenylethyl)-3-(4-methylphenyl)-1H-pyrazolo[3,4-d]pyrimidin-4-amine] |  |  |  |  |  |  |  |  |  |  |  |  |  |  | cell toxicity in human normal fibroblasts [4]: did not showed any sign of cell toxicity; duration of inhibitory activity on Tau phosphorylation ([5]; after compound administration): effective up to six hours; Aβ42 induced Tyr18-Tau phosphorylation ([5]; dose dependent): significantly affected; IC50 for cell viability K562 [6]: submicromolar range; IC50 ([6]; Homo sapiens, K562, read-out: Cellular Data (IC50, μM) K562): 0.3 ± 0.06 µM |
| CN1CCN(CCOC(=O)N(c2cccc(Br)c2)c2nc(SCCN3CCOCC3)nc3c2cnn3CC(Cl)c2ccccc2)CC1 (centres unmarked) [proSi306] |  |  |  | > 48 | > 48 | 11.7 (≈ 8.74 µg/mL) | 8.7 (≈ 11.7 µM) | (45.5) % | 2.13 | 3.48 | (42.0) % | 2.91 |  |  | survival of mice respect to control group [9]: significant ability in prolonging survival; brain concentration with respect to the drug [13]: higher brain concentration; Quantity of Compound, BLOOD ([13]; 15′): 10.7 ± 1.11 nmol of compound/g of tissue; Quantity of Compound, BLOOD ([13]; 30′): 8.9 ± 1.22 nmol of compound/g of tissue; Quantity of Compound, BLOOD ([13]; 1 h): 11.4 ± 1.29 nmol of compound/g of tissue; Quantity of Compound, BLOOD ([13]; 2 h): 7.2 ± 2.17 nmol of compound/g of tissue; Quantity of Compound, BLOOD ([13]; 4 h): 6.5 ± 0.58 nmol of compound/g of tissue; Quantity of Compound, BLOOD ([13]; 8 h): 6.2 ± 2.07 nmol of compound/g of tissue; Quantity of Compound, BLOOD ([13]; 24 h): 3.7 ± 0.60 nmol of compound/g of tissue; Quantity of Compound, BLOOD ([13]; […]): 8.3 ± 2.21 nmol of compound/g of tissue; Quantity of Compound, BRAIN ([13]; 15′): 5.3 ± 1.5 nmol of compound/g of tissue; Quantity of Compound, BRAIN ([13]; 30′): 3.4 ± 0.33 nmol of compound/g of tissue; Quantity of Compound, BRAIN ([13]; 1 h): 3.4 ± 2.24 nmol of compound/g of tissue; Quantity of Compound, BRAIN ([13]; 2 h): 2.8 ± 0.60 nmol of compound/g of tissue; Quantity of Compound, BRAIN ([13]; 4 h): 2.9 ± 1.38 nmol of compound/g of tissue; Quantity of Compound, BRAIN ([13]; 8 h): 3.6 ± 2.12 nmol of compound/g of tissue; Quantity of Compound, BRAIN ([13]; 24 h): 6.6 ± 1.08 nmol of compound/g of tissue; Quantity of Compound, BRAIN ([13]; […]): 2.4 ± 0.24 nmol of compound/g of tissue |
| CSc1nc(Nc2cccc(Br)c2)c2cnn(CC(C)c3ccccc3)c2n1 (centres unmarked) [Si278, N-(3-bromophenyl)-6-(methylthio)-1-(2-phenylpropyl)-H-pyrazolo[3,4-d]pyrimidin-4-amine] |  |  |  |  |  |  |  | (80.4) % |  |  | (66.3) % |  | 95.1 | <0.01 | IC50 [1]: 3.7 µM; H2O Sol. (Log S) ([8]; Table 8): (<−7.60) log mol · L^−1; IC50 [2]: 1.2 µM; PAMPA GI ([10]; Gastrointestinal PAMPA, Table 8): 0 10^−6 cm · sec^−1; IC50 [3]: 5.8 µM; PAMPA BBB ([12]; Blood Brain Barrier PAMPA): 0.50 10^−6 cm · sec^−1 |
| CN1CCN(CCOC(=O)N(c2ccccc2)c2ncnc3c2cnn3CC(Cl)c2ccc(Br)cc2)CC1 (centres unmarked) [proSi223, 2-(4-Methylpiperazin-1-yl)ethyl (1-(2-(4-bromophenyl)-2-chloroethyl)-H-pyrazolo[3,4-d]pyrimidin-4-yl)(phenyl)carbamate] | 4.7 | 12.6 | 5.1 | > 48 | > 48 | 70.8 (≈ 42.4 µg/mL) | 41.6 (≈ 69.4 µM) | (16.0) % | 9.91 | 4.47 | (24.9) % | 6.97 |  |  |  |
| CSc1nc(N(C(=O)OCCN2CCN(C)CC2)c2cccc(Br)c2)c2cnn(CC(C)c3ccccc3)c2n1 (centres unmarked) [proSi278 (A), 2-(4-Methylpiperazin-1-yl)ethyl (3-bromophenyl)(6-(methylthio)-1-(2-phenylpropyl)-1H-pyrazolo[3,4-d]pyrimidin-4-yl)carbamate] | 5.2 | 0.4 | 6.3 | > 48 | > 48 | 11.5 (≈ 7.17 µg/mL) |  | (67.0) % | 2.11 |  | (49.8) % | 1.89 | 99.9 | 6.47 | Stability Human Plasma t1/2 ([11]; 37° C.): 3.21 h; half-life at 100 μM ([11]; read-out: t1/2 in human plasma (converted)): 3.21 h |
